From patent US20200239938A1 (priority 2017, published 2020) come the findings set out here.

Structures are written as SMILES.

Format in all cases: cell-based
For test [1], the system named is Campylobacter jejuni DSM-24306. The test is described as follows: drop plate enumeration of viable cells on Columbia Blood Agar. Set-up: key: +++: bacterial lawn; ++: few colonies; +: single colonies; −: no growth observable.
The subject of test [2] is Campylobacter jejuni DSM-24306. The test is described as follows: microtiter plate cultivation assay with qPCR enumeration of the Cj0414 target gene (growth curves, growth rate). The settings on record: Butyrate 25 mM; for growth rate: cultivation period of 0 to 7 h, very high to low inoculum, GutCare 10% (v/v). The source says:
(§1) The pathogens of interest Salmonella enterica subsp. enterica and Campylobacter jejuni were cultivated in microtiter plate scale in order to enable the simultaneous application of four different starting culture concentrations and treatments (Table 3). For analysis, samples for DNA extraction were taken after different times of cultivation and applied for qPCR enumeration of Salmonella enterica subsp. enterica and Campylobacter jejuni specific genes. As the qPCR assay is designed to record both viable and non-viable cells, an additional viability check was performed for AB treated cultures and the untreated controls.
For Campylobacter jejuni experiments the DSMZ strain DSM-24306 was applied. The inoculum culture was produced by a first overnight cultivation on Columbia Blood Agar (CBA) followed by an overnight cultivation in Mueller-Hinton broth (MH). All cultivations took place under microaerophilic conditions (5% O2, 10% CO2, and […]) at 41° C.
The actual assay was carried out in microtiter plate format containing a total volume of 200 μl. Following media for the different treatment conditions were prepared according to Table 4. For the probiotic treatments (Ecobiol and GutCare), sterile filtrated supernatant of an overnight culture (=cell-free) or non-sterile filtrated, cell-containing supernatant of the same overnight culture was applied.
For C. jejuni all treatments were prepared in MH medium and for S. enterica in LBG respectively. Strains were cultivated under the conditions described in 2.1. Inoculated medium without any treatment served as an untreated control.
For each intervention and for the untreated control, following inoculum concentrations given in starting quantity of the Salmonella enterica subsp. enterica and Campylobacter jejuni specific target gene per ml culture were applied for the start of the assay:
From each concentration and treatment, enough wells were prepared to extract DNA from three well replicates per time point and treatment. For Campylobacter, DNA was extracted after 0, 7, 24 and 48 h. For Salmonella, 0, 2, 4, 6, 24 and 30 h of cultivation were chosen. […]
(§2) For enumeration of Salmonella or Campylobacter, primers and probes binding in conserved genetic regions, specific for each species were applied in qPCR assays with a total volume of 30 μl and a DNA eluate volume of 10 μl. […] Absolute quantification of targets was performed under consolidation of standard curves that were carried with each run. Using the standard curves, the starting quantity (SQ) of the specific target was calculated for each sample. […]
To outline the effect of each treatment, the difference of growth rates between untreated and treated cultures was calculated for each starting inoculum concentration as following: […]
In general terms: In qPCR the cycle at which signal appears reflects the starting amount.

For test [3], the system named is Salmonella enterica subsp. enterica DSM-5569. The test is described as follows: drop plate enumeration of viable cells on tryptic soy agar. Also noted: key: +++: bacterial lawn; ++: few colonies; +: single colonies; −: no growth observable.
For test [4], the system named is Campylobacter jejuni DSM-24306. Put plainly: drop plate enumeration of viable cells on Columbia Blood Agar. Set-up: key to drop plate growth: +++: bacterial lawn; ++: few colonies; +: single colonies; −: no growth observable. The settings on record: for viable cells at the start of cultivation: 0 h.
Excerpt: as §1
(§3) In order to evaluate the effect of bactericidic effect Kanamycin, drop plate tests were performed to determine the number of viable cells. Three dilutions of a ten-fold series of the high (dilutions 10^−3, 10^−4 and 10^−5) and low (dilutions 10′, 10^−2 and 10^−3) inoculated culture after 0 and 6 h were plated in triplicates on CBA (Campylobacter) or tryptic soy agar (TSA) (Salmonella) by dropping 10 μl on the agar. The plates were evaluated regarding growth at the distinct log dilutions after 24 h incubation (41° C. microaerophilic for Campylobacter, 37° C. aerobic for Salmonella).

The test system of test [5] is Salmonella enterica subsp. enterica DSM-5569. The test is described as follows: drop plate enumeration of viable cells on tryptic soy agar. Also noted: key to drop plate growth: +++: bacterial lawn; ++: few colonies; +: single colonies; −: no growth observable. The following applies: for viable cells at the start of cultivation: 0 h.
Excerpt: as §1, §3

The test system is the same in test [6]. The test is described as follows: microtiter plate cultivation assay with qPCR enumeration of the hilA target gene (growth curves, growth rate).
Excerpt: as §1, with “controls. […]” for “controls.”
For each intervention and for the untreated control, following inoculum concentrations given in starting quantity of the Salmonella enterica subsp. enterica and Campylobacter jejuni specific target gene per ml culture were applied for the start of the assay: […]
as §2

Setting [7] is: High concentrated, After 0 h, dilution 10^−6.
Where [8] appears, read: High concentrated, After 0 h, dilution 10^−7.
Where [9] appears, read: High concentrated, After 6 h, dilution 10^−6.
Where [10] appears, read: High concentrated, After 6 h, dilution 10^−7.
The mark [11] stands for this setting: Low concentrated, After 0 h, dilution 10^−4.
Setting [12] is: Low concentrated, After 0 h, dilution 10^−5.
Where [13] appears, read: Low concentrated, After 6 h, dilution 10^−4.
Setting [14] is: Low concentrated, After 6 h, dilution 10^−5.
[15] abbreviates: High concentrated, After 0 h, dilution 10^−5.
[16] abbreviates: High concentrated, After 6 h, dilution 10^−5.
[17] abbreviates: Low concentrated, After 0 h, dilution 10^−3.
Where [18] appears, read: Low concentrated, After 6 h, dilution 10^−3.

In the case of `NC[C@H]1O[C@H](O[C@H]2[C@H](O)[C@@H](O[C@H]3O[C@H](CO)[C@@H](O)[C@H](N)[C@H]3O)[C@H](N)C[C@@H]2N)[C@H](O)[C@@H](O)[C@@H]1O` [Kanamycin], the drop plate growth result in test [1] (setting [7]) was “+”; in test [1] (setting [8]), “−”; in test [1] (setting [9]), “−”; in test [1] (setting [10]), “−”; in test [1] (setting [11]), “++”; in test [1] (setting [12]) it was “+”. The drop plate growth entry in test [1] (setting [13]) was “−”; in test [1] (setting [14]), “−”; in test [3] (setting [7]), “++”; in test [3] (setting [8]) it was “+”; in test [3] (setting [9]), “−”; in test [3] (setting [10]) it was “−”. The drop plate growth entry is recorded as “++” in test [3] (setting [11]); “+” in test [3] (setting [12]); “−” in test [3] (setting [13]); “−” in test [3] (setting [14]); “++” in test [4] (setting [15]); “−” in test [4] (setting [16]). For the same compound, the drop plate growth entry in test [4] (setting [17]) is listed as “++”; in test [4] (setting [18]) it was “−”; in test [5] (setting [15]), “+++”; in test [5] (setting [16]) it was “−”; in test [5] (setting [17]), “+++”; in test [5] (setting [18]) it was “−”. The growth rate in test [2] (Kanamycin 50 μl/ml) was approximately 0.13. For the same compound, the “viable cells at the start of cultivation” value is on record as 6-7 log in test [4] (high concentrated inoculum), 5 log in test [4] (low concentrated inoculum), 6-7 log in test [5] (high concentrated inoculum) and 5 log in test [5] (low concentrated inoculum).
As to `CCCC(=O)[O-].[Na+]` [sodium butyrate, Sodium butyrate], the “growth curve (target starting quantity (SQ) per ml culture, qPCR)” value in test [2] (all inoculum concentrations, MH medium, 41° C. microaerophilic, GutCare (cell-free) 10% (v/v), Kanamycin 50 μl/ml, 0-48 h) is “inhibitory effect”; in test [6] (all inoculum concentrations, LBG, 37° C. aerobic, Butyrate 25 mM, Ecobiol 10% (v/v), 0-30 h), “strong exponential growth during the first 7 h”. Moreover, the “plateau SQ” value in test [2] (compared with untreated control) is given as “significantly lower plateau SQ”. Further, in test [2] (Kanamycin 50 μl/ml), the growth rate entry is given as “around 0.24”. In addition, the “difference of the growth rates (delta) from untreated control” value in test [6] (0 to 7 h, in relation to inoculum concentration (very high to low)) is given as “effect is rather low for all concentrations”.
